Experimental data published in US7947470B2, “Polynucleotides encoding hOCTN1 polypeptide” (Chugai Seiyaku Kabushiki Kaisha, priority 1997, dated 2011).
Starred links: 1 amine or outer side, 2 acyl side, 3 side chain; linkers in the order of their positions; H or OH if unused. Positions of bridges follow the written chain, without caps; N, C: chain ends. Non-standard residues stand in square brackets, D forms with d. Residues, ends and D or L forms follow the SMILES beside them. Chains are numbered I, II in the order given. Actinocin(9to1) = Cc1c2oc3c(C)ccc(C(=O)[*:1])c3nc-2c(C(=O)[*:2])c(N)c1=O; NMeV = CN[C@H](C(=O)O)C(C)C; Sar = CNCC(=O)O

What was measured:
Format in all cases: cell-based
[1] = target: T1, human OCTN1 (Homo sapiens, UniProt Q9H015, I306T/L503F); assay: Transport experiment in HEK293 cells transfected with human OCTN1 (pcDNA3/OCTN1); conditions: for uptake of labeled substrate into human OCTN1-transfected cells: HEK293 cells, compared with Mock or untreated cells, 37° C.
T1 construct: cDNA containing the entire ORF which was cleaved out with SmaI and EcoRI was integrated; expressed in transfected cells; host or cells: Xenopus oocytes injected with 15 ng cRNA transcribed in vitro from pcDNA3/OCTN1
T1 sequence (Q9H015 1-551 I306T/L503F): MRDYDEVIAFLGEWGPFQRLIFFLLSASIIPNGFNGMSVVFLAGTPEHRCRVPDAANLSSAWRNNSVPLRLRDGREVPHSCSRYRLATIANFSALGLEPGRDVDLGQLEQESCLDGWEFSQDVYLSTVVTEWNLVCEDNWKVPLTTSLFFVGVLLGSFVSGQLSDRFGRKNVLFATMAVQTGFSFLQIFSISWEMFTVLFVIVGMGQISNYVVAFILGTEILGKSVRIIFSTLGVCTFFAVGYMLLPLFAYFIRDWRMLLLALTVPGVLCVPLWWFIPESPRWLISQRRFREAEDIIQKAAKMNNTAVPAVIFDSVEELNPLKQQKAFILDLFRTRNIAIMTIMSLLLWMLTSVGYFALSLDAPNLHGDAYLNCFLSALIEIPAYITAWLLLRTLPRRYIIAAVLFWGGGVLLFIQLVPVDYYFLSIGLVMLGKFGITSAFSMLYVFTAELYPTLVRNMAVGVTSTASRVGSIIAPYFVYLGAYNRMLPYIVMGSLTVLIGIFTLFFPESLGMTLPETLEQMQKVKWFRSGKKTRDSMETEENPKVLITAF
Procedure: The human fetal-kidney-derived cell strain, HEK 293 cells were transfected with the plasmid pcDNA3/OCTN1 and pcDNA3 vector containing no insert as a control by the calcium phosphate method. First, the plasmid DNA (10 μg), a Hepes buffer solution (137 mM NaCl, 5 mM KCl, 0.7 mM Na2HPO4, 6 mM Dextrose, and 21 mM Hepes pH 7.1) (1 ml), and 2 M CaCl2 (62.5 μl) were combined and allowed to stand at room temperature for 30 min or more to form calcium phosphate coprecipitates. After cells were plated on 10-cm plates at 1.5×10^6 cells per plate and cultured for 24 h, the calcium phosphate coprecipitates were added thereto, and the cells were further cultured for 24 h. Then, plates were washed with phosphate buffered saline (PBS), and the cells were further cultured for 24 h after the addition of fresh culture medium.
(§1) Transport experiment was performed using cells transfected with the plasmid DNA or untreated cells according to the following procedures. Cells were detached from plates using a rubber policeman, suspended in a transport buffer (containing 125 mM NaCl, 4.8 mM KCl, 5.6 mM (+)-glucose, 1.2 mM CaCl2, 1.2 mM KH2PO4, 1.2 mM MgSO4, and 25 mM Hepes pH 7.4), and pre-incubated for 20 min. An appropriate amount of each labeled substrate ([^14C]TEA (tetraethylammonium) (NEN), [^3H]carnitine (L-carnitine hydrochloride) (Amersham), [^3H]PCG (benzylpenicillin) (Amersham), [^3H]quinidine (ARC), or [^3H]pyrilamine (mepyramine) (Amersham)) was then added to the cell suspension, and the resulting mixture was incubated at 37° C. for a predetermined period of time. Incubated cells were overlaid on a silicon layer prepared by layering a mixture of silicon oil and liquid paraffin (specific gravity 1.022) on a 3 M KCl layer, and separated by centrifugation. Radioactivity of cells was measured to determine the into-the-cell transport activity. In this case, 1×10^6 cells were used as one point of cells. HEK 293 cells were cultured in Dulbecco's MEM containing 10% fetal calf serum (FCS) in an atmosphere of 5% carbon dioxide at 37° C.
First, the transporter capacity was measured in the cells transfected with pcDNA3/OCTN1 and untreated cells using TEA as a substrate (FIG. 5). […] Next, effects of the addition of unlabeled TEA on the labeled substrate uptake in this system (cold inhibition) was examined (FIG. 6). […] Next, to obtain the Km (Michaelis constant) value of human OCTNL to TEA, the uptake of ^14C-TEA with various concentrations was measured (FIG. 7). […] Next, the transport capacity of human OCTN1 for other substrate than TEA was examined (FIG. 8).

[2] = target: T1, human OCTN1; assay: Transport experiment using Xenopus oocytes injected with human OCTN1 cRNA; conditions: 25° C., 1 h, compared with water-injected oocytes
Procedure: cRNA was synthesized in vitro using T7 RNA polymerase with pcDNA3/OCTN1 as a template. This cRNA was diluted to the concentration of 0.3 ng/nl, and its 50-nl (15 ng) aliquot was injected into a single oocyte. As a control, 50 nl of distilled water was injected. These oocytes were cultured for 3 days, and then used for the transport experiment. After being preincubated in an uptake buffer (0.05% Tween 80, 100 mM NaCl, 2 mM KCl, 1 mM CaCl2, 1 mM MgCl2, and 10 mM Hepes pH 7.4) at 25° C. for 20 min, the oocytes were transferred to the uptake buffer containing 0.5 ml of labeled substrate to initiate the uptake. After the incubation at 25° C. for 1 h, the oocytes were washed in the ice-cold uptake buffer three times to terminate the reaction. The oocytes were solubilized in 5% SDS and mixed with Cleasol I (a cocktail for liquid scintillation counter) (3 ml) to determine the radioactivity. The radioactivity of the uptake buffer which contained the labeled compound at the time of incubation (external solution) (10 μl) was also similarly measured. The ratio of the radioactivity (dpm value) in the oocytes to that (dpm value) in the external solution was used as the uptake activity.

[3] = target: T2, human OCTN2 (Homo sapiens, UniProt O76082); assay: Transport experiment in HEK cells transfected with human OCTN2 (pcDNA3/OCTN2); conditions: for transport by human OCTN2: HEK cells transfected with pcDNA3/OCTN2, compared with Mock and pcDNA3/OCTN1
T2 construct: clones from both fragments were ligated at the PstI site in the overlapping region; expressed in transfected cells
T2 sequence (O76082 1-557): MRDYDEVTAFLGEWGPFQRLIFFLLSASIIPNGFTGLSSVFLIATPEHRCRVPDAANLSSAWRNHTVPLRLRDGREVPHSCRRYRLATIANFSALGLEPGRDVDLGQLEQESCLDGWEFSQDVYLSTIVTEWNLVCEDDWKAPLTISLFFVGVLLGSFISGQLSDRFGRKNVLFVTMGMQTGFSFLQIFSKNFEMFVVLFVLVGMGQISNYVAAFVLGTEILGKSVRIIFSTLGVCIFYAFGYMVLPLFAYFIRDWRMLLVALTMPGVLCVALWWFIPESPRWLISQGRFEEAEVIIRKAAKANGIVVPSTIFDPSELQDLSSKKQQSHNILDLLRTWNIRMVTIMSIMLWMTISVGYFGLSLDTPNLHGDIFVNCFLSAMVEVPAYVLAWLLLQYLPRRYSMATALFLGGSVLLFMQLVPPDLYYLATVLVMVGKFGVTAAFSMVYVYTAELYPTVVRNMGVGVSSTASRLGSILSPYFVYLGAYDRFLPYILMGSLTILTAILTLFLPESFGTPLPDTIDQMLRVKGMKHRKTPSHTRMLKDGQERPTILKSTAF
Procedure: as §1
HEK cells were transfected with pcDNA3/OCTN2, the pcDNA3 vector containing no insert (Mock), or pcDNA3/OCTN1 by the method described in Example 6 to perform transport experiments.
Next, Na^+ dependence of human OCTN2-mediated carnitine transport was examined using a transport buffer in which Na^+ was replaced with K+(FIG. 12).

| Compound | uptake of labeled substrate into human OCTN1-transfected cells [1] | uptake activity / transport capacity of human OCTN1 cRNA-injected oocytes [2] | also measured |
| --- | --- | --- | --- |
| CC[N+](CC)(CC)CC [TEA, tetraethylammonium] | reaction time-dependent TEA uptake into the human OCTN1-transfectd cells was clearly observed | expresses the transport capacity | transport by human OCTN2 [3]: hardly transported; transport by human OCTN1 (comparison with OCTN2) ([1]; HEK cells transfected with pcDNA3/OCTN1, Example 8): efficiently transported by human OCTN1; maximal velocity, Vmax ([1]; Lineweaver-Burk plot of net uptake (OCTN1-transfected minus Mock HEK293 cells), 14C-TEA): 6.68±0.34 nmol/3 min/mg; Km ([1]; Lineweaver-Burk plot of net uptake (OCTN1-transfected minus Mock HEK293 cells), 14C-TEA, read-out: Km (Michaelis constant) value of human OCTN1 to TEA): 440 ± 40 µM; effect of unlabeled (cold) TEA on labeled substrate uptake (cold inhibition) ([1]; human OCTN1-transfected HEK293 cells): decrease in the apparent uptake of the labeled substrate was clearly seen depending on the concentration of cold TEA added |
| Cc1c2oc3c(C)ccc(C(=O)N[C@@H]4C(=O)N[C@H](C(C)C)C(=O)N5CCC[C@H]5C(=O)N(C)CC(=O)N(C)[C@@H](C(C)C)C(=O)O[C@@H]4C)c3nc-2c(C(=O)N[C@@H]2C(=O)N[C@H](C(C)C)C(=O)N3CCC[C@H]3C(=O)N(C)CC(=O)N(C)[C@@H](C(C)C)C(=O)O[C@@H]2C)c(N)c1=O [actinomycin D] (I: T[dV]P[Sar][NMeV] / II: T[dV]P[Sar][NMeV]; ester I:1-I:C, II:1-II:C; linker I:N-II:N via Actinocin(9to1)) | – | has the activity to transport | – |
| C[N+](C)(C)C[C@H](O)CC(=O)[O-].Cl [carnitine, L-carnitine hydrochloride] | significant increase in the uptake | expresses the transport capacity | transport by human OCTN2 [3]: high capacity to efficiently transport; carnitine transport activity of human OCTN2 in the absence of Na+ ([3]; absence of Na+): no such activity; carnitine transport activity of human OCTN2 in the presence of Na+ ([3]; presence of Na+): time-dependent carnitine transport activity; Na+ dependence of human OCTN2-mediated carnitine transport ([3]; transport buffer in which Na+ was replaced with K+): completely depended on the presence of Na^+ |
| COc1cccc2c1C(=O)c1c(O)c3c(c(O)c1C2=O)C[C@@](O)(C(C)=O)C[C@@H]3O[C@H]1C[C@H](N)[C@H](O)[C@H](C)O1 [daunomycin] | – | has the activity to transport | – |
| COc1cc([C@@H]2c3cc4c(cc3[C@@H](O[C@@H]3O[C@@H]5CO[C@@H](C)O[C@H]5[C@H](O)[C@H]3O)[C@H]3COC(=O)[C@H]23)OCO4)cc(OC)c1O [etoposide] | – | has the activity to transport | – |
| CC[C@]1(O)C[C@@H]2CN(CCc3c([nH]c4ccccc34)[C@@](C(=O)OC)(c3cc4c(cc3OC)N(C)[C@H]3[C@@](O)(C(=O)OC)[C@H](OC(C)=O)[C@]5(CC)C=CCN6CC[C@]43[C@@H]65)C2)C1 [vinblastine] | – | has the activity to transport | – |

Further lines, with some results ahead:

| uptake of labeled substrate into human OCTN1-transfected cells [1] | Compound | uptake activity / transport capacity of human OCTN1 cRNA-injected oocytes [2] | also measured |
| --- | --- | --- | --- |
| no significant increase in the uptake | CC1(C)S[C@@H]2[C@H](NC(=O)Cc3ccccc3)C(=O)N2[C@H]1C(=O)O [PCG, benzylpenicillin] | – | – |
| significant increase in the uptake | COc1ccc(CN(CCN(C)C)c2ccccn2)cc1 [pyrilamine] | expresses the transport capacity | – |
| significant increase in the uptake | C=C[C@H]1C[N@@]2CC[C@H]1C[C@@H]2[C@@H](O)c1ccnc2ccc(OC)cc12 [quinidine] | expresses the transport capacity | – |
